Among the test systems are EKVX; SNB-75; IGROV-1; HOP-92; HOP-62; NCI-H23; K562; SNB-19; RXF 393; OVCAR-3; 786-0; A549; NCI-H522; TK-10; CCRF-CEM; COLO 205; PC-3; NCI-H226; SW-620.
What all share (experiment): NCI tumour cell line growth inhibition, 48 h

Structures are written as SMILES.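 Interpolation was linear, between the two tested concentrations surrounding the appropriate level; five concentrations were tested over 48 hours in 96-well plates. Abbreviation: GI50, concentration required for 50% inhibition of growth.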 The source made the active and inactive calls. No stated cut-off is given here; in the data, active = GI50 up to about 1.1 µM and inactive = higher.

As to `CCN(CC)CC1CCCCN1CC(=O)N1c2ccc(Br)cc2C(=O)Nc2cccnc21` (stereo unspecified), the GI50 in the test on EKVX is > 100 µM (inactive); with SNB-75 it was 12.3 µM (inactive); in the test with IGROV-1 it was > 100 µM (inactive); in the test with HOP-92, 80.4 µM (inactive); with HOP-62, > 100 µM (inactive); in the test on NCI-H23 it was > 100 µM (inactive). Moreover, the GI50 in the test with K562, with SNB-19, with RXF 393, in the test with OVCAR-3, with 786-0 and in the test with A549 was > 100 µM (inactive) each time. For the same compound, the GI50 in the test on NCI-H522, in the test on TK-10, with CCRF-CEM, in the test with COLO 205, in the test on PC-3 and in the test with NCI-H226 was > 100 µM (inactive) in each case.
`Clc1cc(C(c2cc(Cl)sc2Cl)c2cc(Cl)sc2Cl)c(Cl)s1`: the GI50 in the test with EKVX, in the test on SNB-75, in the test on IGROV-1, with HOP-92, in the test on HOP-62 and with NCI-H23 was > 100 µM (inactive) throughout. Further, the GI50 with K562, with SNB-19, in the test on RXF 393, with OVCAR-3, in the test with 786-0 and with A549 was > 100 µM (inactive) in each case. For the same compound, the GI50 in the test with NCI-H522, in the test with TK-10, in the test with CCRF-CEM, in the test with COLO 205, with SW-620 and in the test on PC-3 was > 100 µM (inactive) throughout. The GI50 in the test on NCI-H226 is > 100 µM (inactive).
Turning to `CC(=O)O[C@]1(C)CCC2C(C)C(=O)OC2C2C(C)[C@@H](O)CC21` (stereo partly specified), the GI50 in the test on EKVX is 67.5 µM (inactive); with SNB-75 it was 60.5 µM (inactive); with IGROV-1, 40.7 µM (inactive); with HOP-92, 26.4 µM (inactive); in the test on HOP-62 it was 19.3 µM (inactive); in the test on NCI-H23 it was 36.6 µM (inactive). Moreover, the GI50 in the test on K562 is 17.1 µM (inactive); with SNB-19, 28.3 µM (inactive); in the test on RXF 393 it was 32.3 µM (inactive); in the test on OVCAR-3 it was 12.9 µM (inactive); in the test with 786-0, 31.4 µM (inactive); in the test with A549 it was 52.7 µM (inactive). The GI50 in the test with NCI-H522 is 13.1 µM (inactive); in the test on TK-10 it was 42.6 µM (inactive); in the test on CCRF-CEM it was 23.8 µM (inactive); in the test on COLO 205, 20 µM (inactive); in the test on SW-620 it was 15.8 µM (inactive); in the test with NCI-H226 it was 31.4 µM (inactive).
Turning to `Cc1nn(C)c(=S)n(C)c1=O`, the GI50 with EKVX was 4.83 µM (inactive); in the test with SNB-75, 0.329 µM (active); with IGROV-1 it was 1 µM (active); in the test with HOP-92, 0.291 µM (active); in the test on HOP-62, 1.81 µM (inactive); in the test with NCI-H23, 0.483 µM (active). Also, the GI50 with K562 is 0.343 µM (active); in the test on SNB-19, 0.802 µM (active); in the test on RXF 393 it was 0.498 µM (active); in the test on OVCAR-3 it was 4.19 µM (inactive); in the test with 786-0, 3.27 µM (inactive); with A549, 0.439 µM (active). In addition, the GI50 in the test on NCI-H522 was 0.275 µM (active); in the test on TK-10, 4.69 µM (inactive); with CCRF-CEM, 1.55 µM (inactive); in the test with COLO 205, 4.16 µM (inactive); in the test on SW-620, 1.79 µM (inactive); in the test with NCI-H226, 7.53 µM (inactive).
In the case of `Cn1c(-c2ccc(-c3cc(-c4cccs4)c(-c4cccs4)n3C)cc2)cc(-c2cccs2)c1-c1cccs1`, the GI50 in the test on EKVX, in the test with SNB-75, in the test on IGROV-1, in the test on HOP-62, in the test with K562 and with SNB-19 was > 100 µM (inactive) each time. Moreover, the GI50 in the test with RXF 393, with 786-0, in the test with A549, with TK-10, in the test on CCRF-CEM and in the test with COLO 205 was > 100 µM (inactive) each time. Besides, the GI50 with SW-620, with PC-3 and with NCI-H226 was > 100 µM (inactive) each time.
On to `CCCC/C=C/C1Cc2ccccc2CN1S(=O)(=O)c1ccc(C)cc1` (stereo unspecified), for which the GI50 in the test on EKVX is 13.7 µM (inactive); with SNB-75 it was 13.3 µM (inactive); in the test on IGROV-1, 12.3 µM (inactive); in the test with HOP-92, 2.15 µM (inactive); with HOP-62, 31.5 µM (inactive); with NCI-H23, 4.27 µM (inactive). Further, the GI50 in the test with K562 was 3.64 µM (inactive); in the test with SNB-19, 24.2 µM (inactive); in the test with RXF 393 it was 10.8 µM (inactive); in the test on OVCAR-3, 9.57 µM (inactive); in the test on 786-0, 12.3 µM (inactive); in the test on A549, 5.33 µM (inactive). The GI50 is 4.31 µM (inactive) in the test with NCI-H522; 20.9 µM (inactive) in the test with TK-10; 4.9 µM (inactive) in the test with CCRF-CEM; 7.29 µM (inactive) with COLO 205; 11.2 µM (inactive) with SW-620; 10 µM (inactive) with NCI-H226.
Consider `N/N=C(/Cc1nc2ccc(C(=O)c3ccccc3)cc2nc1O)C(=O)Nc1ccc([N+](=O)[O-])cc1[N+](=O)[O-]`, for which the GI50 with EKVX was > 100 µM (inactive); in the test on SNB-75 it was > 10 µM (inactive); in the test on IGROV-1 it was > 10 µM (inactive); with HOP-92 it was > 10 µM (inactive); in the test on NCI-H23, > 10 µM (inactive); in the test on K562, > 10 µM (inactive). The GI50 in the test on SNB-19 was > 100 µM (inactive); in the test with RXF 393 it was > 100 µM (inactive); in the test with OVCAR-3 it was > 10 µM (inactive); in the test with 786-0, 71.9 µM (inactive); in the test with A549 it was > 10 µM (inactive); with NCI-H522 it was > 10 µM (inactive). Also, the GI50 in the test with TK-10 was > 100 µM (inactive); with CCRF-CEM, > 10 µM (inactive); in the test with COLO 205, > 10 µM (inactive); with SW-620, > 100 µM (inactive); with NCI-H226, > 10 µM (inactive).
For the compound `C/C(=N\NC(N)=O)c1sc(-c2nc(C)c(/C(C)=N/NC(N)=O)s2)nc1C`, the GI50 with EKVX is 21.5 µM (inactive); in the test on SNB-75 it was > 100 µM (inactive); in the test on IGROV-1 it was > 100 µM (inactive); with HOP-92, > 100 µM (inactive); with HOP-62, > 100 µM (inactive); in the test with NCI-H23, > 100 µM (inactive). In addition, the GI50 in the test on K562 was 53.8 µM (inactive); in the test on SNB-19, > 100 µM (inactive); in the test on RXF 393, > 100 µM (inactive); in the test with OVCAR-3 it was > 100 µM (inactive); in the test with 786-0, > 100 µM (inactive); with A549 it was > 100 µM (inactive). In addition, the GI50 is 70.5 µM (inactive) in the test on NCI-H522; > 100 µM (inactive) in the test with TK-10; 90.4 µM (inactive) in the test on CCRF-CEM; 53.6 µM (inactive) with COLO 205; > 100 µM (inactive) in the test on NCI-H226.
Turning to `CCCCCCCCCCCCCc1nnn[nH]1`, the GI50 with EKVX was 23.4 µM (inactive); with SNB-75 it was 18.3 µM (inactive); in the test with IGROV-1 it was 21.2 µM (inactive); with HOP-92, 15.6 µM (inactive); with HOP-62, 18.2 µM (inactive); with NCI-H23, 24.4 µM (inactive). Also, the GI50 in the test on SNB-19 was 18.7 µM (inactive); with RXF 393 it was 27.5 µM (inactive); with OVCAR-3 it was 18.3 µM (inactive); with 786-0, 17.3 µM (inactive); in the test on A549, 20 µM (inactive); in the test on NCI-H522, 21.8 µM (inactive). For the same compound, the GI50 is 20.6 µM (inactive) in the test with TK-10; 18.8 µM (inactive) in the test on CCRF-CEM; 19.4 µM (inactive) in the test with COLO 205; 20 µM (inactive) in the test with SW-620; 22.2 µM (inactive) in the test with NCI-H226.
For `CC(=O)Oc1ccc2c(=O)c(C(C)=O)coc2c1`, the GI50 in the test on EKVX is > 100 µM (inactive); in the test on IGROV-1 it was > 100 µM (inactive); in the test on HOP-92 it was 79.6 µM (inactive); with HOP-62 it was > 100 µM (inactive); in the test on NCI-H23, > 100 µM (inactive); in the test on K562, > 100 µM (inactive). Besides, the GI50 with SNB-19, in the test on RXF 393, in the test with OVCAR-3, with 786-0, in the test with A549 and in the test with NCI-H522 was > 100 µM (inactive) in each case. Also, the GI50 is > 100 µM (inactive) in the test with TK-10; > 100 µM (inactive) in the test with CCRF-CEM; > 100 µM (inactive) with COLO 205; > 100 µM (inactive) with SW-620; 83.9 µM (inactive) in the test on NCI-H226.
With `CCOC(=O)c1oc2c(OC)cc(Cl)c3c2c1CCC3`, the GI50 was > 100 µM (inactive) in the test with EKVX; 26.2 µM (inactive) in the test on SNB-75; 38.3 µM (inactive) in the test with IGROV-1; 20.7 µM (inactive) with HOP-92; > 100 µM (inactive) with NCI-H23; > 100 µM (inactive) in the test on K562. The GI50 is 31.5 µM (inactive) in the test with SNB-19; 24.2 µM (inactive) with RXF 393; 13.6 µM (inactive) with OVCAR-3; 30.8 µM (inactive) in the test on 786-0; 59.8 µM (inactive) in the test on A549; 29.2 µM (inactive) with NCI-H522. Besides, the GI50 in the test on TK-10 is 27.4 µM (inactive); with CCRF-CEM, > 100 µM (inactive); in the test on COLO 205, > 100 µM (inactive); in the test with SW-620, > 100 µM (inactive); in the test on NCI-H226, 12.2 µM (inactive).

For the origin of these results see ChEMBL document CHEMBL1201862, “PubChem BioAssay data set” (2004).
